These results are taken from publication PMC9097638, “Mechanism underlying the carotenoid accumulation in shaded tea leaves” (Food Chemistry: X, 2022).

For one assay, the target named is T1, CsLCYB (Camellia sinensis, UniProt A0A0B4SX47).
T1 construct: gene lcyb; full-length cDNA subcloned into y2 plasmid; expressed in E. coli DH5alpha carrying pAC-LYC; not purified
T1 sequence (A0A0B4SX47 1-504): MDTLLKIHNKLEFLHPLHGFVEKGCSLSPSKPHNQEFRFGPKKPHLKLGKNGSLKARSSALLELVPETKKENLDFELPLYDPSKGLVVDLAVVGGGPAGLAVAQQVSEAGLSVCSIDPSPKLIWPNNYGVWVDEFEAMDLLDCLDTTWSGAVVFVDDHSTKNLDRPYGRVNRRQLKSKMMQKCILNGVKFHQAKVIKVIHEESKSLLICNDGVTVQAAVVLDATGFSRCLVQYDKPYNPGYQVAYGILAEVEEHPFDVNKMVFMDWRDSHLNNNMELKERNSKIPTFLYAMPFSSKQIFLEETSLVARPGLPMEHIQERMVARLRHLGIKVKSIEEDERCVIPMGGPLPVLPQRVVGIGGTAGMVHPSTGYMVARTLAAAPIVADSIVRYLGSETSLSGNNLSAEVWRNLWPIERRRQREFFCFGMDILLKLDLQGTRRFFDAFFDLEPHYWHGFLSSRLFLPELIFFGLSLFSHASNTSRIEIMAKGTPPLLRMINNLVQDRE
Briefly: E. coli pAC-LYC complementation, HPLC of pigments. The class given is cell-based. Conditions: lycopene made in the cells; product beta-carotene; 30 °C, 48 h, darkness.

In the next assay the target is T2, CsLCYE (Camellia sinensis, UniProt A0A7J7G232).
T2 construct: gene HYC85_025912; full-length cDNA subcloned into y2 plasmid; expressed in E. coli DH5alpha carrying pAC-LYC; not purified
T2 sequence (A0A7J7G232 1-531 limits assumed): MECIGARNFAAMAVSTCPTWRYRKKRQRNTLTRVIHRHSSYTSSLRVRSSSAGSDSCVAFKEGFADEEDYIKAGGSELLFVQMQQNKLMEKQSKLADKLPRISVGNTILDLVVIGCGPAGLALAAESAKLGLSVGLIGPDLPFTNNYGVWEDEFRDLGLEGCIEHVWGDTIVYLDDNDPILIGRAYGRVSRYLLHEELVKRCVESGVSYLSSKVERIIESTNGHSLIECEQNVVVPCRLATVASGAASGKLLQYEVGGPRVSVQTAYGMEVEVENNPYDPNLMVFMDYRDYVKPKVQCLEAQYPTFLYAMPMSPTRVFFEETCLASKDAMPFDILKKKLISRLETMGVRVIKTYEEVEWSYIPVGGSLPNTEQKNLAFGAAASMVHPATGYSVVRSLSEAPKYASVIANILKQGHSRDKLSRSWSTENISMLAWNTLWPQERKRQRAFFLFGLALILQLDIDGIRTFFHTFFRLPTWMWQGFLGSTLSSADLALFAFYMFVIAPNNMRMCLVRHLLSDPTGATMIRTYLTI
Kind of assay: E. coli pAC-LYC complementation, HPLC of pigments. The class given is cell-based. Conditions: lycopene made in the cells; product delta-carotene; 30 °C, 48 h, darkness.

`CC(C)=CCC/C(C)=C/C=C/C(C)=C/C=C/C(C)=C/C=C/C=C(C)/C=C/C=C(C)/C=C/C=C(\C)CCC=C(C)C` [lycopene]: the “E. coli pAC-LYC complementation, HPLC of pigments” value at CsLCYB was “CsLCYB was able to convert the lycopene produced by the cells to β-carotene”; at CsLCYE, “monocyclic δ-carotene and lycopene were detected, implying that CsLCYE is a functional lycopene ε-cyclase”.
